Laboratory results published in patent US6552080B1, “Fungicidal compounds having a fluorovinyl-or fluoropropenyl-oxyphenyloxime moiety and process for the preparation thereof” (Korea Research Institute of Chemical Technology, priority 1999, dated 2003).

system: Pyricularia oryzae Carvara KA301; assay: not given; format: in vivo; settings: Rice Blast; concentration 2 ppm

Point of comparison: `CNC(=O)C(=NOC)c1ccccc1CON=Cc1cccc(OC(F)=C(c2ccccc2)C(F)(F)F)c1` [Compound 139], “RCV (Fungicidal Activities, C.V.)” value 53%. Against it:
- CNC(=O)C(=NOC)c1ccccc1CON=Cc1cccc(OC(F)=Cc2cccc(C)c2)c1 [Compound 31] — higher, 97%
- CON=C(C(=O)OC)c1ccccc1CON=Cc1cccc(OC(F)=Cc2ccc3c(c2)OCO3)c1 [Compound 29] — higher, 93%
- CNC(=O)C(=NOC)c1ccccc1CON=C(C)c1cccc(OC(F)=Cc2cccc(C)c2)c1 [Compound 78] — higher, 100%
- CCc1ccc(C=C(F)Oc2cccc(C=NOCc3ccccc3C(=NOC)C(=O)NC)c2)cc1 [Compound 33] — higher, 97%

same assay, conditions: Rice Blast; concentration 10 ppm

With `COC=C(C(=O)OC)c1ccccc1CON=C(C)c1cccc(OC(F)=Cc2ccc(F)cc2)c1` [Compound 51] the “RCV (Fungicidal Activities, C.V.)” value was 99%.

same assay, conditions: Rice Blast; concentration 50 ppm

Point of comparison: `CNC(=O)C(=NOC)c1ccccc1CON=Cc1cccc(OC(F)=C(c2ccccc2)C(F)(F)F)c1` [Compound 139], “RCV (Fungicidal Activities, C.V.)” value 100%. Against it:
- COC=C(C(=O)OC)c1ccccc1CON=C(C)c1cccc(OC(F)=Cc2ccc(F)cc2)c1 [Compound 51] — the same, 100%
- CNC(=O)C(=NOC)c1ccccc1CON=Cc1cccc(OC(F)=Cc2cccc(C)c2)c1 [Compound 31] — the same, 100%
- COC=C(C(=O)OC)c1ccccc1CON=C(C)c1cccc(OC(F)=C(c2ccc(OC)cc2)C(F)(F)F)c1 [Compound 158] — lower, 41%
- CON=C(C(=O)OC)c1ccccc1CON=Cc1cccc(OC(F)=Cc2ccc3c(c2)OCO3)c1 [Compound 29] — the same, 100%
- CNC(=O)C(=NOC)c1ccccc1CON=C(C)c1cccc(OC(F)=Cc2cccc(C)c2)c1 [Compound 78] — the same, 100%
- CCc1ccc(C=C(F)Oc2cccc(C=NOCc3ccccc3C(=NOC)C(=O)NC)c2)cc1 [Compound 33] — lower, 96%

system: Botrytis cinerae; assay: Fungicidal activity against Cucumber Gray Mold Rot (CGM) disease; format: in vivo; settings: Cucumber Gray Mold Rot; concentration 50 ppm

Point of comparison: `COC=C(C(=O)OC)c1ccccc1CON=C(C)c1cccc(OC(F)=Cc2ccc(F)cc2)c1` [Compound 51], “CGM (Fungicidal Activities, C.V.)” value 52%. Against it:
- CNC(=O)C(=NOC)c1ccccc1CON=Cc1cccc(OC(F)=C(c2ccccc2)C(F)(F)F)c1 [Compound 139] — lower, 0%
- CNC(=O)C(=NOC)c1ccccc1CON=Cc1cccc(OC(F)=Cc2cccc(C)c2)c1 [Compound 31] — lower, 25%
- COC=C(C(=O)OC)c1ccccc1CON=C(C)c1cccc(OC(F)=C(c2ccc(OC)cc2)C(F)(F)F)c1 [Compound 158] — lower, 44%
- CON=C(C(=O)OC)c1ccccc1CON=Cc1cccc(OC(F)=Cc2ccc3c(c2)OCO3)c1 [Compound 29] — lower, 0%
- CNC(=O)C(=NOC)c1ccccc1CON=C(C)c1cccc(OC(F)=Cc2cccc(C)c2)c1 [Compound 78] — higher, 82%
- CCc1ccc(C=C(F)Oc2cccc(C=NOCc3ccccc3C(=NOC)C(=O)NC)c2)cc1 [Compound 33] — lower, 0%

system: Phytophthora infestans; assay: not given; format: in vivo; settings: Tomato Late Blight; concentration 2 ppm

Point of comparison: `CON=C(C(=O)OC)c1ccccc1CON=Cc1cccc(OC(F)=Cc2ccc3c(c2)OCO3)c1` [Compound 29], “TLB (Fungicidal Activities, C.V.)” value 78%. Against it:
- CNC(=O)C(=NOC)c1ccccc1CON=C(C)c1cccc(OC(F)=Cc2cccc(C)c2)c1 [Compound 78] — lower, 50%

same assay, conditions: Tomato Late Blight; concentration 50 ppm

Point of comparison: `COC=C(C(=O)OC)c1ccccc1CON=C(C)c1cccc(OC(F)=C(c2ccc(OC)cc2)C(F)(F)F)c1` [Compound 158], “TLB (Fungicidal Activities, C.V.)” value 0%. Against it:
- COC=C(C(=O)OC)c1ccccc1CON=C(C)c1cccc(OC(F)=Cc2ccc(F)cc2)c1 [Compound 51] — higher, 97%
- CNC(=O)C(=NOC)c1ccccc1CON=Cc1cccc(OC(F)=C(c2ccccc2)C(F)(F)F)c1 [Compound 139] — higher, 46%
- CNC(=O)C(=NOC)c1ccccc1CON=Cc1cccc(OC(F)=Cc2cccc(C)c2)c1 [Compound 31] — higher, 8%
- CON=C(C(=O)OC)c1ccccc1CON=Cc1cccc(OC(F)=Cc2ccc3c(c2)OCO3)c1 [Compound 29] — higher, 84%
- CNC(=O)C(=NOC)c1ccccc1CON=C(C)c1cccc(OC(F)=Cc2cccc(C)c2)c1 [Compound 78] — higher, 94%
- CCc1ccc(C=C(F)Oc2cccc(C=NOCc3ccccc3C(=NOC)C(=O)NC)c2)cc1 [Compound 33] — the same, 0%

system: Puccinia recondita; assay: Fungicidal activity against Wheat Leaf Rust (WLR) disease; format: in vivo; settings: Wheat Leaf Rust; concentration 2 ppm

Point of comparison: `COC=C(C(=O)OC)c1ccccc1CON=C(C)c1cccc(OC(F)=C(c2ccc(OC)cc2)C(F)(F)F)c1` [Compound 158], “WLR (Fungicidal Activities, C.V.)” value 91%. Against it:
- CNC(=O)C(=NOC)c1ccccc1CON=Cc1cccc(OC(F)=C(c2ccccc2)C(F)(F)F)c1 [Compound 139] — higher, 93%
- CNC(=O)C(=NOC)c1ccccc1CON=Cc1cccc(OC(F)=Cc2cccc(C)c2)c1 [Compound 31] — lower, 83%
- CON=C(C(=O)OC)c1ccccc1CON=Cc1cccc(OC(F)=Cc2ccc3c(c2)OCO3)c1 [Compound 29] — higher, 96%
- CNC(=O)C(=NOC)c1ccccc1CON=C(C)c1cccc(OC(F)=Cc2cccc(C)c2)c1 [Compound 78] — higher, 100%
- CCc1ccc(C=C(F)Oc2cccc(C=NOCc3ccccc3C(=NOC)C(=O)NC)c2)cc1 [Compound 33] — lower, 10%

same assay, conditions: Wheat Leaf Rust; concentration 10 ppm

Point of comparison: `COC=C(C(=O)OC)c1ccccc1CON=C(C)c1cccc(OC(F)=Cc2ccc(F)cc2)c1` [Compound 51], “WLR (Fungicidal Activities, C.V.)” value 100%. Against it:
- COC=C(C(=O)OC)c1ccccc1CON=C(C)c1cccc(OC(F)=C(c2ccc(OC)cc2)C(F)(F)F)c1 [Compound 158] — lower, 98%

same assay, conditions: Wheat Leaf Rust; concentration 50 ppm

Point of comparison: `CNC(=O)C(=NOC)c1ccccc1CON=Cc1cccc(OC(F)=C(c2ccccc2)C(F)(F)F)c1` [Compound 139], “WLR (Fungicidal Activities, C.V.)” value 98%. Against it:
- COC=C(C(=O)OC)c1ccccc1CON=C(C)c1cccc(OC(F)=Cc2ccc(F)cc2)c1 [Compound 51] — higher, 100%
- CNC(=O)C(=NOC)c1ccccc1CON=Cc1cccc(OC(F)=Cc2cccc(C)c2)c1 [Compound 31] — higher, 100%
- COC=C(C(=O)OC)c1ccccc1CON=C(C)c1cccc(OC(F)=C(c2ccc(OC)cc2)C(F)(F)F)c1 [Compound 158] — higher, 100%
- CON=C(C(=O)OC)c1ccccc1CON=Cc1cccc(OC(F)=Cc2ccc3c(c2)OCO3)c1 [Compound 29] — lower, 88%
- CNC(=O)C(=NOC)c1ccccc1CON=C(C)c1cccc(OC(F)=Cc2cccc(C)c2)c1 [Compound 78] — higher, 100%
- CCc1ccc(C=C(F)Oc2cccc(C=NOCc3ccccc3C(=NOC)C(=O)NC)c2)cc1 [Compound 33] — lower, 96%

system: Erysiphae graminis; assay: Fungicidal activity against Barley Powdery Mildew (BPM) disease; format: in vivo; settings: Barley Powdery Mildew; concentration 2 ppm

Point of comparison: `CNC(=O)C(=NOC)c1ccccc1CON=Cc1cccc(OC(F)=C(c2ccccc2)C(F)(F)F)c1` [Compound 139], “BPM (Fungicidal Activities, C.V.)” value 97%. Against it:
- CNC(=O)C(=NOC)c1ccccc1CON=Cc1cccc(OC(F)=Cc2cccc(C)c2)c1 [Compound 31] — lower, 8%
- COC=C(C(=O)OC)c1ccccc1CON=C(C)c1cccc(OC(F)=C(c2ccc(OC)cc2)C(F)(F)F)c1 [Compound 158] — higher, 98%
- CON=C(C(=O)OC)c1ccccc1CON=Cc1cccc(OC(F)=Cc2ccc3c(c2)OCO3)c1 [Compound 29] — lower, 41%
- CNC(=O)C(=NOC)c1ccccc1CON=C(C)c1cccc(OC(F)=Cc2cccc(C)c2)c1 [Compound 78] — higher, 100%
- CCc1ccc(C=C(F)Oc2cccc(C=NOCc3ccccc3C(=NOC)C(=O)NC)c2)cc1 [Compound 33] — lower, 0%

same assay, conditions: Barley Powdery Mildew; concentration 10 ppm

Point of comparison: `COC=C(C(=O)OC)c1ccccc1CON=C(C)c1cccc(OC(F)=C(c2ccc(OC)cc2)C(F)(F)F)c1` [Compound 158], “BPM (Fungicidal Activities, C.V.)” value 100%. Against it:
- COC=C(C(=O)OC)c1ccccc1CON=C(C)c1cccc(OC(F)=Cc2ccc(F)cc2)c1 [Compound 51] — the same, 100%

same assay, conditions: Barley Powdery Mildew; concentration 50 ppm

Point of comparison: `COC=C(C(=O)OC)c1ccccc1CON=C(C)c1cccc(OC(F)=Cc2ccc(F)cc2)c1` [Compound 51], “BPM (Fungicidal Activities, C.V.)” value 100%. Against it:
- CNC(=O)C(=NOC)c1ccccc1CON=Cc1cccc(OC(F)=C(c2ccccc2)C(F)(F)F)c1 [Compound 139] — lower, 98%
- CNC(=O)C(=NOC)c1ccccc1CON=Cc1cccc(OC(F)=Cc2cccc(C)c2)c1 [Compound 31] — the same, 100%
- COC=C(C(=O)OC)c1ccccc1CON=C(C)c1cccc(OC(F)=C(c2ccc(OC)cc2)C(F)(F)F)c1 [Compound 158] — the same, 100%
- CON=C(C(=O)OC)c1ccccc1CON=Cc1cccc(OC(F)=Cc2ccc3c(c2)OCO3)c1 [Compound 29] — lower, 80%
- CNC(=O)C(=NOC)c1ccccc1CON=C(C)c1cccc(OC(F)=Cc2cccc(C)c2)c1 [Compound 78] — the same, 100%
- CCc1ccc(C=C(F)Oc2cccc(C=NOCc3ccccc3C(=NOC)C(=O)NC)c2)cc1 [Compound 33] — the same, 100%

system: Rhizoctonia solani AG-1; assay: Fungicidal activity against Rice Sheath Blight (RSB) disease; settings: Rice Sheath Blight; concentration 2 ppm

Point of comparison: `CON=C(C(=O)OC)c1ccccc1CON=Cc1cccc(OC(F)=Cc2ccc3c(c2)OCO3)c1` [Compound 29], “RSB (Fungicidal Activities, C.V.)” value 20%. Against it:
- CNC(=O)C(=NOC)c1ccccc1CON=Cc1cccc(OC(F)=C(c2ccccc2)C(F)(F)F)c1 [Compound 139] — lower, 10%
- CNC(=O)C(=NOC)c1ccccc1CON=C(C)c1cccc(OC(F)=Cc2cccc(C)c2)c1 [Compound 78] — higher, 45%

same assay, conditions: Rice Sheath Blight; concentration 10 ppm

`COC=C(C(=O)OC)c1ccccc1CON=C(C)c1cccc(OC(F)=Cc2ccc(F)cc2)c1` [Compound 51] was tested, and the “RSB (Fungicidal Activities, C.V.)” value was 88%.

same assay, conditions: Rice Sheath Blight; concentration 50 ppm

Point of comparison: `COC=C(C(=O)OC)c1ccccc1CON=C(C)c1cccc(OC(F)=Cc2ccc(F)cc2)c1` [Compound 51], “RSB (Fungicidal Activities, C.V.)” value 90%. Against it:
- CNC(=O)C(=NOC)c1ccccc1CON=Cc1cccc(OC(F)=C(c2ccccc2)C(F)(F)F)c1 [Compound 139] — lower, 20%
- CNC(=O)C(=NOC)c1ccccc1CON=Cc1cccc(OC(F)=Cc2cccc(C)c2)c1 [Compound 31] — lower, 52%
- COC=C(C(=O)OC)c1ccccc1CON=C(C)c1cccc(OC(F)=C(c2ccc(OC)cc2)C(F)(F)F)c1 [Compound 158] — lower, 70%
- CON=C(C(=O)OC)c1ccccc1CON=Cc1cccc(OC(F)=Cc2ccc3c(c2)OCO3)c1 [Compound 29] — lower, 35%
- CNC(=O)C(=NOC)c1ccccc1CON=C(C)c1cccc(OC(F)=Cc2cccc(C)c2)c1 [Compound 78] — the same, 90%
- CCc1ccc(C=C(F)Oc2cccc(C=NOCc3ccccc3C(=NOC)C(=O)NC)c2)cc1 [Compound 33] — lower, 17%
